Test results reported in US20050197350A1, “Novel quinoline, tetrahydroquinazoline, and pyrimidine derivatives and methods of treatment related to the use thereof” (TAISHO PHARMACEUTICAL CO., LTD., priority 2003, published 2005).

What follows are molecules tested on MCH receptors (assay: MCH receptor activity class (method not given)). Settings: MCH receptor activity class 1-3 (percent of control at 10^-7 M or IC50).

Row | Compound | class
1 | CN(C)c1cc(N[C@H]2CC[C@@H](NC(=S)NC3CC4CCC3C4)CC2)nc2ccccc12 (relative stereo) [compound 2310] | 3 (Class 3 The value of percent of control at 10^−7 M was more than 60% or the value of IC50 was more than 200 nM.)
2 | CN(C)c1ccnc(N[C@H]2CC[C@@H](NC(=S)NC3CC4CCC3C4)CC2)n1 (relative stereo) [compound 2355] | 3 (Class 3 The value of percent of control at 10^−7 M was more than 60% or the value of IC50 was more than 200 nM.)
3 | CCOC(=O)[C@H](CC(C)C)NC(=O)NC[C@H]1CC[C@@H](Nc2cc(N(C)C)c3ccccc3n2)CC1 (relative stereo) [compound 2363] | 3 (Class 3 The value of percent of control at 10^−7 M was more than 60% or the value of IC50 was more than 200 nM.)
4 | CCOC(=O)[C@H](CC(C)C)NC(=O)NC[C@H]1CC[C@@H](Nc2nccc(N(C)C)n2)CC1 (relative stereo) [compound 2409] | 3 (Class 3 The value of percent of control at 10^−7 M was more than 60% or the value of IC50 was more than 200 nM.)
5 | CCOC(=O)[C@H](CC(C)C)NC(=O)NC[C@H]1CC[C@@H](Nc2nc3c(c(N(C)C)n2)CCCC3)CC1 (relative stereo) [compound 2455] | 2 (Class 2: The value of percent of control at 10^−7 M was from 40% to 60% or the value of IC′50 was from 50 nM to 200 nM.)

Same assay, conditions: class by percent of control at 10^-7 M or IC50

Row | Compound | class
6 | COC(=O)[C@H](CCSC)NC(=O)N[C@H]1CC[C@@H](Nc2cc(N(C)C)c3ccccc3n2)CC1 (relative stereo) [compound 2129] | 3 (Class 3 The value of percent of control at 10^−7 M was more than 60% or the value of IC50 was more than 200 nM.)
7 | CC(NC(=O)N[C@H]1CC[C@@H](Nc2cc(N(C)C)c3ccccc3n2)CC1)c1cccc2ccccc12 (relative stereo) [compound 2134] | 1 (Class 1: The value of percent of control at 10^−7 M was less than 40% or the value of IC50 was less than 50 nM.)
8 | COC(=O)[C@H](Cc1ccccc1)NC(=O)N[C@H]1CC[C@@H](Nc2cc(N(C)C)c3ccccc3n2)CC1 (relative stereo) [compound 2135] | 2 (Class 2: The value of percent of control at 10^−7 M was from 40% to 60% or the value of IC′50 was from 50 nM to 200 nM.)
9 | CC(NC(=O)N[C@H]1CC[C@@H](Nc2cc(N(C)C)c3ccccc3n2)CC1)c1ccccc1 (relative stereo) [compound 2136] | 3 (Class 3 The value of percent of control at 10^−7 M was more than 60% or the value of IC50 was more than 200 nM.)
10 | CC(NC(=O)N[C@H]1CC[C@@H](Nc2cc(N(C)C)c3ccccc3n2)CC1)c1ccc(Br)cc1 (relative stereo) [compound 2158] | 3 (Class 3 The value of percent of control at 10^−7 M was more than 60% or the value of IC50 was more than 200 nM.)
11 | CCOC(=O)[C@H](Cc1ccccc1)NC(=O)N[C@H]1CC[C@@H](Nc2cc(N(C)C)c3ccccc3n2)CC1 (relative stereo) [compound 2160] | 3 (Class 3 The value of percent of control at 10^−7 M was more than 60% or the value of IC50 was more than 200 nM.)
12 | CCOC(=O)[C@H](CC(C)C)NC(=O)N[C@H]1CC[C@@H](Nc2nccc(N(C)C)n2)CC1 (relative stereo) [compound 2183] | 3 (Class 3 The value of percent of control at 10^−7 M was more than 60% or the value of IC50 was more than 200 nM.)
13 | COC(=O)[C@H](CCSC)NC(=O)N[C@H]1CC[C@@H](Nc2nccc(N(C)C)n2)CC1 (relative stereo) [compound 2219] | 3 (Class 3 The value of percent of control at 10^−7 M was more than 60% or the value of IC50 was more than 200 nM.)
14 | CC(NC(=O)N[C@H]1CC[C@@H](Nc2nccc(N(C)C)n2)CC1)c1cccc2ccccc12 (relative stereo) [compound 2224, N-(cis-4-{[4-(dimethylamino)pyrimidin-2-yl]amino}cyclohexyl)-N′-[1-(1-naphthyl)ethyl]urea] | 1 (Class 1: The value of percent of control at 10^−7 M was less than 40% or the value of IC50 was less than 50 nM.)
15 | COC(=O)[C@H](Cc1ccccc1)NC(=O)N[C@H]1CC[C@@H](Nc2nccc(N(C)C)n2)CC1 (relative stereo) [compound 2225] | 3 (Class 3 The value of percent of control at 10^−7 M was more than 60% or the value of IC50 was more than 200 nM.)
16 | CC(NC(=O)N[C@H]1CC[C@@H](Nc2nccc(N(C)C)n2)CC1)c1ccccc1 (relative stereo) [compound 2226] | 3 (Class 3 The value of percent of control at 10^−7 M was more than 60% or the value of IC50 was more than 200 nM.)
17 | CC(NC(=O)N[C@H]1CC[C@@H](Nc2nccc(N(C)C)n2)CC1)c1ccc(Br)cc1 (relative stereo) [compound 2248] | 3 (Class 3 The value of percent of control at 10^−7 M was more than 60% or the value of IC50 was more than 200 nM.)
18 | CCOC(=O)[C@H](Cc1ccccc1)NC(=O)N[C@H]1CC[C@@H](Nc2nccc(N(C)C)n2)CC1 (relative stereo) [compound 2250] | 3 (Class 3 The value of percent of control at 10^−7 M was more than 60% or the value of IC50 was more than 200 nM.)

Same assay, conditions: class by percent of control at 10^−7 M or IC50

Row | Compound | class
19 | Cc1cnc(N[C@H]2CC[C@@H](C(=O)NC(C)c3ccc(Br)cc3)CC2)nc1N(C)C (relative stereo) [compound 2779] | 1 (Class 1: The value of percent of control at 10^−7 M was less than 40% or the value of IC50 was less than 50 nM.)
20 | Cc1cnc(N[C@H]2CC[C@@H](C(=O)N[C@@H](C)c3cccc4ccccc34)CC2)nc1N(C)C (relative stereo) [compound 2783, cis-4-{[4-(dimethylamino)-5-methylpyrimidin-2-yl]ainino}-N-[(1S)-1-(1-naphthyl)ethyl]cyclohexanecarboxamide] | 1 (Class 1: The value of percent of control at 10^−7 M was less than 40% or the value of IC50 was less than 50 nM.)
21 | Cc1nc(N[C@H]2CC[C@@H](NC(=O)C(O)c3cc(F)cc(F)c3)CC2)nc(N(C)C)c1C (relative stereo) [compound 2829, 2-(3,5-difluorophenyl)-N-(cis-4-{[4-(dimethylamino)-5,6-dimethylpyrimidin-2-yl]amino}cyclohexyl)-2-hydroxyacetamide] | 2 (Class 2: The value of percent of control at 10^−7 M was from 40% to 60% or the value of IC′50 was from 50 nM to 200 nM.)
22 | Cc1cnc(N[C@H]2CC[C@@H](NC(=O)C(C)c3ccc(Cl)cc3)CC2)nc1N(C)C (relative stereo) [compound 2874, 2-(4-chlorophenyl)-N-(cis-4-{[4-(dimethylamino)-5-methylpyrimidin-2-yl]amino}cyclohexyl)propanamide] | 1 (Class 1: The value of percent of control at 10^−7 M was less than 40% or the value of IC50 was less than 50 nM.)
23 | Cc1cnc(N[C@H]2CC[C@@H](NC(=O)C(O)c3ccc(Cl)cc3)CC2)nc1N(C)C (relative stereo) [compound 2876, 2-(4-chlorophenyl)-N-(cis-4-{[4-(dimethylamino)-5-methylpyrimidin-2-yl]amino}cyclohexyl)-2-hydroxyacetamide] | 1 (Class 1: The value of percent of control at 10^−7 M was less than 40% or the value of IC50 was less than 50 nM.)
24 | Cc1cnc(N[C@H]2CC[C@@H](NC(=O)C[S+]([O-])c3ccccc3C(F)(F)F)CC2)nc1N(C)C (relative stereo) [compound 2880] | 1 (Class 1: The value of percent of control at 10^−7 M was less than 40% or the value of IC50 was less than 50 nM.)
